# How the values were obtained:
# [1] = Metabolic stability, human liver microsome test; format: in vitro ADME; conditions: liver microsomes, pH 7.4, 1 μM compound, 0.5 mg/mL protein, 37° C.; for half-life at 1 μM: read-out: human liver microsome test t1/2(min)
# Procedure: (§1) Microsome tests: human liver microsomes: 0.5 mg/mL, Xenotech; rat liver microsomes: 0.5 mg/mL, Xenotech; coenzyme (NADPH/NADH): 1 mM, Sigma Life Science; magnesium chloride: 5 mM, 100 mM phosphate buffer agent (pH 7.4).
# (§2) Preparation of the stock solution: A certain amount of the powder of the example compounds was accurately weighed and dissolved to 5 mM with DMSO.
# (§3) Preparation of phosphate buffer (100 mM, pH 7.4): 150 mL of pre-prepared 0.5 M potassium dihydrogen phosphate solution was mixed with 700 mL of pre-prepared 0.5 M dipotassium hydrogen phosphate solution, and the pH of the mixture was adjusted with 0.5 M dipotassium hydrogen phosphate solution to 7.4. It was diluted 5 times with ultrapure water before use, and magnesium chloride was added to obtain a phosphate buffer (100 mM) containing 100 mM potassium phosphate, 3.3 mM magnesium chloride, and a pH of 7.4.
# (§4) A solution of NADPH regeneration system (containing 6.5 mM NADP, 16.5 mM G-6-P, 3 U/mL G-6-P D, 3.3 mM magnesium chloride) was prepared and placed on wet ice before use.
# (§5) Preparation of stop solution: acetonitrile solution containing 50 ng/mL propranolol hydrochloride and 200 ng/mL tolbutamide (internal standard). 25057.5 μL of phosphate buffer (pH 7.4) was taken into a 50 mL centrifuge tube, 812.5 μL of human liver microsomes was added respectively, and mixed uniformly to obtain a liver microsome dilution with a protein concentration of 0.625 mg/mL. 25057.5 μL of phosphate buffer (pH 7.4) was taken into a 50 mL centrifuge tube, and 812.5 μL of SD rat liver microsomes was added respectively, and mixed uniformly to obtain a liver microsome dilution with a protein concentration of 0.625 mg/mL.
# (§6) Incubation of the sample: The stock solutions of the corresponding compounds were diluted to 0.25 mM as working solutions with an aqueous solution containing 70% acetonitrile before use. 398 μL of human liver microsome or rat liver microsome dilutions were added to 96-well incubation plates (N=2), and 2 μL of 0.25 mM working solutions were added and mixed uniformly, respectively.
# (§7) Determination of metabolic stability: 300 μL of pre-cooled stop solution was added to each well of a 96-well deep well plate, which was placed on ice as a stop plate. The 96-well incubation plate and the NADPH regeneration system were placed in a 37° C. water bath, shaken at 100 rpm, and pre-incubated for 5 min. 80 μL of the incubation solution was removed from each well of the incubation plate, added to the stop plate, and mixed uniformly, and 20 μL of the NADPH regeneration system solution was supplemented as a sample at 0 min. Then, 80 μL of the NADPH regeneration system solution was added to each well of the incubation plate to start the reaction and the timing was started. […] 100 μL of the reaction solution was removed at 10, 30, and 90 min of the reaction, respectively, and added to the stop plate, and the reaction was terminated by vortexing for 3 min. The stop plate was centrifuged at 5000×g for 10 min at 4° C. 100 μL of the supernatant was removed into a 96-well plate to which 100 μL of distilled water was previously added, mixed uniformly, and sample analysis was performed by LC-MS/MS.
# (§8) Data analysis: The peak areas of the corresponding compounds and the internal standard were detected by LC-MS/MS system, and the ratios of the peak areas of the compounds to the internal standard were calculated.
# (§9) The metabolic stability in human and rat liver microsomes was evaluated by simultaneously testing and comparing the compounds of the present invention and the compound without deuteration. The non-deuterated compound LOXO-195 was used as a control.
# [2] = Metabolic stability, rat liver microsome test; format: in vitro ADME; conditions: SD, liver microsomes, pH 7.4, 1 μM compound, 0.5 mg/mL protein, 37° C.; for half-life at 1 μM: read-out: rat liver microsome test t1/2(min)
# Procedure: as §1, §2, §3, §4, §5, §6, §7, §8, §9
# KM12 (TPM3-TRKA) cells = assay: Cytotoxicity test, inhibition of KM12 cell proliferation (CellTiter-Glo); format: cell-based; conditions: Homo sapiens, 72 h, 3 days incubation
# Procedure: The inhibitory effect of the example compounds on the activity of KM12 (TPM3-TRKA) cells was examined.
# Experimental methods: 1. Preparation of cell plates—KM12 cells were separately seeded in 96-well plates, and 8 ng/ml IL-3 was added to KM12 cells, and the cell plates were incubated in a carbon dioxide incubator overnight. 2. The test compound was dissolved in DMSO and subjected to a 3.16-fold gradient dilution with 9 compound concentrations in triplicate. 3. Compound Treatment of Cells—The compounds were transferred to cell plates at a starting concentration of 10 μM. The cell plates were incubated in a carbon dioxide incubator for 3 days. 4. Detection—The CellTiter-Glo reagent was added to the cell plate and incubated for 30 minutes at room temperature to stabilize the luminescence signal. Readings were performed using a PerkinElmer Envision multi-label analyzer.
Compound,microsomal CLint at 1 μM [1] [µL/min/mg],half-life at 1 μM [1] [min],microsomal CLint at 1 μM [2] [µL/min/mg],half-life at 1 μM [2] [min],IC50 (KM12 (TPM3-TRKA) cells) [nM]
"[2H]C1([2H])c2ncc(F)cc2C2CCCN2c2ccn3ncc(c3n2)C(=O)N[C@H](C)C1([2H])[2H] (stereo partly drawn) [Compound 13, (15R)-9-fluoro-15-methyl-2,11,16,20,21,24-hexaazapentocyclo[16.5.2.0^2,6,0^7,12,0^21,25]pentacosane-1(24),7,9,11,18(25),19,22-heptaene-17-one-13,13,14,14-d4]",38.5,36,23.3,59.4,
"[2H]C1([2H])c2ncc(F)cc2[C@H]2CCCN2c2ccn3ncc(c3n2)C(=O)N[C@H](C)C1([2H])[2H] [Compound L-1-a, (6R,15R)-9-fluoro-15-methyl-2,11,16,20,21,24-hexaazapentocyclo[16.5.2.0^2,6,0^7,12,0^21,25]pentacosane-1(24),7,9,11,18(25),19,22-heptaene-17-one-13,13,14,14-d4]",56.5,24.5,44.2,31.3,
"[2H]C1([2H])c2ncc(F)cc2[C@@H]2CCCN2c2ccn3ncc(c3n2)C(=O)N[C@H](C)C1([2H])[2H] [Compound L-1-b, (6S,15R)-9-fluoro-15-methyl-2,11,16,20,21,24-hexaazapentocyclo[16.5.2.0^2,6,0^7,12,0^21,25]pentacosane-1(24),7,9,11,18(25),19,22-heptaene-17-one-13,13,14,14-d4]",49.8,27.8,75.1,18.5,
"[2H]C1([2H])CCN2c3ccn4ncc(c4n3)C(=O)N[C@H](C)CCc3ncc(F)cc3[C@]21[2H] [Compound L-2-a, (6R,15R)-9-fluoro-15-methyl-2,11,16,20,21,24-hexaazapentocyclo[16.5.2.0^2,6,0^7,12,0^21,25]pentacosane-1(24),7,9,11,18(25),19,22-heptaene-17-one-5,5,6-d3]",79.6,17.4,45.6,30.4,2.51
"[2H]C1([2H])CCN2c3ccn4ncc(c4n3)C(=O)N[C@H](C)CCc3ncc(F)cc3[C@@]21[2H] [Compound L-2-b, (6S,15R)-9-fluoro-15-methyl-2,11,16,20,21,24-hexaazapentocyclo[16.5.2.0^2,6,0^7,12,0^21,25]pentacosane-1(24),7,9,11,18(25),19,22-heptaene-17-one-5,5,6-d3]",55.2,25.1,57.9,23.9,

# Now from value to molecule, other results behind:
microsomal CLint at 1 μM [1] [µL/min/mg],half-life at 1 μM [1] [min],microsomal CLint at 1 μM [2] [µL/min/mg],half-life at 1 μM [2] [min],Compound,IC50 (KM12 (TPM3-TRKA) cells) [nM]
78.7,17.6,35.5,39.1,"[2H]C([2H])([2H])C1([2H])CCc2ncc(F)cc2C2CCCN2c2ccn3ncc(c3n2)C(=O)N1 (racemic) [Compound 70, 9-fluoro-15-(methyl-d3)-2,11,16,20,21,24-hexaazapentocyclo[16.5.2.0^2,6,0^7,12,0^21,25]pentacosane-1(24),7,9,11,18(25),19,22-heptaene-17-one-15-d]",
94.3,14.7,59.5,23.3,"C[C@@H]1CCc2ncc(F)cc2C2CCCN2c2ccn3ncc(c3n2)C(=O)N1 (some centres unmarked) [Compound Φ, reference compound]",
108,12.9,83.2,16.7,"C[C@@H]1CCc2ncc(F)cc2[C@H]2CCCN2c2ccn3ncc(c3n2)C(=O)N1 [Compound Φ-a, (6R,15R)-9-fluoro-15-methyl-2,11,16,20,21,24-hexaazapentocyclo[16.5.2.0^2,6,0^7,12,0^21,25]pentacosane-1(24),7,9,11,18(25),19,22-heptaene-17-one, reference compound]",2.56
78.4,17.7,79.2,17.5,"C[C@@H]1CCc2ncc(F)cc2[C@@H]2CCCN2c2ccn3ncc(c3n2)C(=O)N1 [Φ-b, reference compound]",

# From US11345703B2, “Substituted pyrazolo[1,5-a]pyrimidine macrocyclic compound” (SHENZHEN TARGETRX, INC., priority 2018, dated 2022)
